{"source": "patent US20230331679A1", "about": "“NAPHTHALENE MONOIMIDE COMPOUNDS AND METHODS THEREOF” (JAWAHARLAL NEHRU CENTRE FOR ADVANCED SCIENTIFIC RESEARCH, priority 2020, published 2023)", "key": {"Full length tau": {"biological_target": "T1, Full length tau (Homo sapiens, UniProt P10636)", "T1 construct": "Full length tau (5 µM) was incubated with TGR63", "T1 sequence (P10636 1-441 isoform P10636-8)": "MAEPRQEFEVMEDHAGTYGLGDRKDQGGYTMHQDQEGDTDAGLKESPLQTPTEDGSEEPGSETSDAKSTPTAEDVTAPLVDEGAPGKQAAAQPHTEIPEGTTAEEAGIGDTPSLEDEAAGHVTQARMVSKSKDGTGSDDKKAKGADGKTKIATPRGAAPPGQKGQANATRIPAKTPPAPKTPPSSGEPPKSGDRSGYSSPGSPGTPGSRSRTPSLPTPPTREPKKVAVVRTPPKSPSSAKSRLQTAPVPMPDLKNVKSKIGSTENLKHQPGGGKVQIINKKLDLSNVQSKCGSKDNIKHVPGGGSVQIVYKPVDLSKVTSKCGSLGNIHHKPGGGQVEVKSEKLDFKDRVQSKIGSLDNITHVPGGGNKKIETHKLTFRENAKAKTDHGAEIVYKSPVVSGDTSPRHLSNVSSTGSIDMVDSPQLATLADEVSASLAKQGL", "experiment": "ThT fluorescence assay, inhibition of tau aggregation", "format": "biochemical", "details": "for ThT fluorescence signal compared with untreated controls (100%): tau 5 µM, heparin 1.25 µM, 72 h at 37° C.", "excerpt": "Tau is a microtubule-associated proteins that interacts with tubulin and stimulates its assembly into microtubules. The extent of phosphorylation regulates the activity of tau protein and the hyperphosphorylation diminishes its physiological function leading to several neuronal disorders like AD and tauopathies. The self-aggregation of hyperphosphorylated tau form intracellular neurofibrillary tangles (NFTs) and paired helical filaments (PHFs) that impairs the axonal functions and degenerates neuronal cells. Considering the prominent role of tau in AD pathology, the self-aggregation and deposition of hyperphosphorylated tau became a potential target to tackle AD and related tauopathies. Effect of TGR63 on tau aggregation was assessed. Full length tau (5 µM) was incubated with TGR63 (5 and 25 µM) for 72 h at 37° C. in the presence of aggregation inducer (heparin; 1.25 µM). The extent of aggregation of incubated samples were assessed by ThT fluorescence (λex= 442 nm and λem=482 nm) assay. FIG. 25 depicts the inhibition of tau (5 µM) aggregation in presence of TGR63. As expected, the ThT fluorescence signal was increased by ~15 folds with compare to only ThT, which confirmed the formation of pathogenic tau aggregates."}, "SHSY5Y cells": {"system": "SHSY5Y cells", "experiment": "Membrane toxicity modulation, immunocytochemistry in SHSY5Y cells", "format": "cell-based", "details": "Aβ42 pre-incubated 24 h with TGR63, 2 h treatment", "description": "Inspiring from the above-mentioned studies, membrane toxicity modulation ability of TGR63 through immunocytochemistry in SHSY5Y cells was also investigated. The cells were cultured in 35 mm confocal dishes and treated individually with Aβ42 samples, pre-incubated for 24 h in the presence and absence of TGR63 for 2 h under cell growing conditions. Then the experimental cells were washed and fixed using 4% paraformaldehyde (PFA) to probe the Aβ42 fibrils with OC (1:250) antibody, followed by red fluorescent labeled (λex= 633 nm and λem= 650 nm) secondary antibody (Alexa 633-A21052, Thermo). Finally, unbound antibody was washed and 4′,6-diamidino-2-phenylindole (DAPI) was used to stain the nucleus before the confocal imaging. For DAPI staining, experimental cells were incubated with DAPI (500 nM) solution (PBS) for 10 min at room temperature. Then, the cells were washed with PBS three times and imaged under confocal fluorescence microscope (λex= 358 nm, […]). FIG. 5 depicts the images obtained by nuclear staining of SHSY5Y cells with DAPI(blue) and Aβ42 fibrils staining with OC antibody and red fluorescent labelled secondary antibody."}, "[1]": {"experiment": "MALDI mass analysis of blood serum after administration", "format": "in vivo", "details": "WT mice, 24 h after administration", "description": "Pharmacokinetics of TGR63 in wild-type (WT) mice was performed to assess its in vivo efficacy. The lethal dose 50 (LD50) of TGR63 was determined in WT mice through intraperitoneal (IP) injection following the Organisation for Economic Cooperation and Development (OECD) guidelines. […] FIG. 7A illustrates the calculation of lethal dose 50% (LD50) of TGR63 through intraperitoneal administration and is represented as table of experimental details and the final observation was done on 14th day. FIG. 7B illustrates the mortality (%) plotted against TGR63 concentration and calculation of LD50. Twenty-five WT mice were segregated in five different groups (G1-5, N= 5 per group) and administered with varying doses of TGR63 (1.7, 5.5, 17.5 56.0 and 179.0 mg/kg body weight, respectively) through IP injection and their survival was monitored for 14 days. The serum stability and blood-brain barrier (BBB) crossing ability of TGR63 were assessed through matrix-assisted laser desorption ionization (MALDI) mass spectrometry analysis of blood and brain samples of vehicle and TGR63 treated mice. […] The partition coefficient (P), a valuable physical property was calculated to predict the BBB permeability. […] The calculated positive logP value predicts the possible BBB crossing ability for TGR63. […]"}, "APP/PS1 mice": {"system": "APP/PS1 mice", "experiment": "Open field (OF) test", "format": "in vivo", "details": "AD TGR63 cohort", "description": "In OF test, all the experimental mice were individually allowed to explore a novel platform (45 X 45 cm) and their locomotion activity was monitored for 5 min (Sony HDRCX405 camera) and analyzed using the smart 3 software (Panlab; FIG. 16A). […] The anxiety behaviors of TGR63 treated mice were assessed by the time spent and the entries in the center zone (20 X 20 cm) of OF arena. […] Next, the effect of TGR63 on memory processing, viz., acquisition, consolidation and retrieval were evaluated through NOI test, which has been widely used as a tool to study the neurobiology of memory using the natural tendency of rodents to explore novel objects more than the familiar objects. All the experimental mice were familiarized with two identical objects (familiar objects) in a known habituated arena and allowed to explore a novel and familiar object after 24 and 48 h of familiarization (FIG. 16E). The exploration time with each object was measured using a stopwatch, and the discrimination index (DI) was determined using the formula, (time exploring the novel object - time exploring the familiar) / (time exploring novel + familiar) * 100. […] Similarly, the calculated DI after 48 h was lowest (-7) for AD vehicle cohort compared to both vehicle and TGR63 treated WT cohorts (+43 and +45, respectively) (FIG. 16G). […] The blocking of essential synaptic receptors (NMDA and AMPA) by Aβ aggregation species leading to synaptic dysfunction followed by impairment in hippocampal LTP formation. […] TGR63 treatment ameliorates the memory impairment in APP/PS 1 mice by reducing the toxic amyloid burden from the brain under progressive AD conditions."}}, "data": [{"smiles": "CN(C)c1ccc(C#Cc2ccc3c4c(cccc24)C(=O)N(CC[N+](C)(C)C)C3=O)cc1", "note": "[TGR63, 2-(6-((4-(dimethylamino)phenyl)ethynyl)-1,3-dioxo-1H-benzo[de]isoquinolin-2(3H)-yl)-N,N,N-trimethylethan-1-aminium]", "values": [{"measurement": "ThT fluorescence signal compared with untreated controls (100%)", "setting": "Full length tau; TGR63 5 µM", "result": "~ 72%"}, {"measurement": "ThT fluorescence signal compared with untreated controls (100%)", "setting": "Full length tau; TGR63 25 µM", "result": "~52", "unit": "%"}, {"measurement": "reduction of tau aggregates", "setting": "Full length tau; tau:TGR63 1:1", "result": "~ 28%"}, {"measurement": "reduction of tau aggregates", "setting": "Full length tau; tau:TGR63 1:5", "result": "~48", "unit": "%"}, {"measurement": "OC red fluorescence signal of Aβ42 fibrils on plasma membrane", "setting": "SHSY5Y cells", "result": "lower red fluorescence signal on the plasma membrane"}, {"measurement": "presence in blood (MALDI)", "setting": "[1]", "result": "confirmed the presence of TGR63 in blood after 24 h of administration"}, {"measurement": "total distance traveled (average)", "setting": "APP/PS1 mice; 5 min, AD vehicle 2698.25 cm, WT vehicle 1533.88 cm", "result": 1515.33, "unit": "cm"}, {"measurement": "distance traveled in the center zone (average)", "setting": "APP/PS1 mice; AD vehicle 243.0 cm", "result": 98.14, "unit": "cm"}, {"measurement": "number of entries into the center zone", "setting": "APP/PS1 mice; AD vehicle ~20", "result": "~ 9 entries"}]}]}
